Earlier results, collected in patent US5523456A, “Inhibitors of farnesyl-protein transferase” (Merck & Co., Inc., priority 1994, dated 1996).

System: Ras farnesylation
Conditions: Hancock et al.; Casey et al.; Schafer et al.

Compound | Inhibition of Ras farnesylation in vivo
CC[C@H](C)C(=O)O[C@H]1CCC=C2C=C[C@H](C)[C@H](CC[C@@H]3C[C@@H](O)CC(=O)O3)[C@H]21 [compactin] | Inhibition of Ras farnesylation in vivo has been demonstrated
CC[C@H](C)C(=O)O[C@H]1C[C@@H](C)C=C2C=C[C@H](C)[C@H](CC[C@@H]3C[C@@H](O)CC(=O)O3)[C@H]21 [lovastatin] | Inhibition of Ras farnesylation in vivo has been demonstrated
